Columns and labels:
Experiment in all cases: relative viability (nuclei count vs DMSO), 5 days (fraction); higher = more cells survive
[1] = tested on: 201T
Procedure, shortened: (§1)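 A single step with final 0.05% Triton X-100, 1% formaldehyde and 1 ug/ml Hoechst fixed the cells and stained nuclei 5 days after treatment. Lung cancer cell lines in 1536-well plates had been treated by pin tool the day after seeding with one drug alone or a fixed anchor-drug dose plus five library-drug doses (not always all listed) in √10 steps, and nuclei were counted on 4× images. Relative viability is the ratio of nuclei in treated wells to nuclei in vehicle wells, taken as the median of duplicate plates.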

[2] = tested on: ABC-1
Procedure, shortened: as §1

[3] = tested on: EMC-BAC-2
Procedure, shortened: as §1

[4] = tested on: EPLC-272H
Procedure, shortened: as §1

[5] = tested on: HCC-78
Procedure, shortened: as §1

[6] = tested on: LCLC-103H
Procedure, shortened: as §1

[7] = tested on: LOU-NH91
Procedure, shortened: as §1

[8] = tested on: NCI-H1437
Procedure, shortened: as §1

[9] = tested on: NCI-H1651
Procedure, shortened: as §1

[10] = tested on: NCI-H1734
Procedure, shortened: as §1

[11] = tested on: NCI-H1792
Procedure, shortened: as §1

[12] = tested on: NCI-H1915
Procedure, shortened: as §1

[13] = tested on: NCI-H1975
Procedure, shortened: as §1

[14] = tested on: NCI-H2023
Procedure, shortened: as §1

[15] = tested on: NCI-H23
Procedure, shortened: as §1

[16] = tested on: NCI-H2405
Procedure, shortened: as §1

[17] = tested on: NCI-H647
Procedure, shortened: as §1

[18] = tested on: NCI-H661
Procedure, shortened: as §1

[19] = tested on: RERF-LC-KJ
Procedure, shortened: as §1

[20] = tested on: SK-LU-1
Procedure, shortened: as §1

[21] = tested on: UMC-11
Procedure, shortened: as §1

O=c1[nH]c2ccccc2n1C1CCN(CCCC(c2ccc(F)cc2)c2ccc(F)cc2)CC1 [Pimozide] + CC(C)C[C@H](NC(=O)[C@H](Cc1ccccc1)NC(=O)c1cnccn1)B(O)O [Bortezomib] (partner 0.002 µM) showed a relative viability ([1]; first compound 0.08 µM) of 1.07, a relative viability ([1]; first compound 0.253 µM) of 1.05 and a relative viability ([1]; first compound 0.8 µM) of 1.02. For the same compound, the relative viability ([1]; first compound 2.53 µM) was 1.08, the relative viability ([1]; first compound 8 µM) was 1.01 and the relative viability ([2]; first compound 0.08 µM) was 0.289. It also gave a relative viability ([2]; first compound 0.253 µM) of 0.284, a relative viability ([2]; first compound 0.8 µM) of 0.34 and a relative viability ([2]; first compound 2.53 µM) of 0.227. It also gave a relative viability ([2]; first compound 8 µM) of 0.26, a relative viability ([3]; first compound 0.08 µM) of 0.992 and a relative viability ([3]; first compound 0.253 µM) of 1.03. For the same compound, the relative viability ([3]; first compound 0.8 µM) was 0.972, the relative viability ([3]; first compound 2.53 µM) was 1.04 and the relative viability ([3]; first compound 8 µM) was 1.05. The relative viability ([4]; first compound 0.08 µM) was 0.974, the relative viability ([4]; first compound 0.253 µM) was 1.04 and the relative viability ([4]; first compound 0.8 µM) was 0.826. The relative viability ([4]; first compound 2.53 µM) was 0.828, the relative viability ([4]; first compound 8 µM) was 0.91 and the relative viability ([5]; first compound 0.08 µM) was 0.408. It also gave a relative viability ([5]; first compound 0.253 µM) of 0.417, a relative viability ([5]; first compound 0.8 µM) of 0.409 and a relative viability ([5]; first compound 2.53 µM) of 0.443. The relative viability ([5]; first compound 8 µM) was 0.336, the relative viability ([6]; first compound 0.08 µM) was 1 and the relative viability ([6]; first compound 0.253 µM) was 1.07. It also gave a relative viability ([6]; first compound 0.8 µM) of 0.877, a relative viability ([6]; first compound 2.53 µM) of 1.08 and a relative viability ([6]; first compound 8 µM) of 1.12. For the same compound, the relative viability ([7]; first compound 0.08 µM) was 0.498, the relative viability ([7]; first compound 0.253 µM) was 0.528 and the relative viability ([7]; first compound 0.8 µM) was 0.529. The relative viability ([7]; first compound 2.53 µM) was 0.504, the relative viability ([7]; first compound 8 µM) was 0.479 and the relative viability ([8]; first compound 0.08 µM) was 0.492. For the same compound, the relative viability ([8]; first compound 0.253 µM) was 0.45, the relative viability ([8]; first compound 0.8 µM) was 0.423 and the relative viability ([8]; first compound 2.53 µM) was 0.507. The relative viability ([8]; first compound 8 µM) was 0.403, the relative viability ([9]; first compound 0.08 µM) was 0.903 and the relative viability ([9]; first compound 0.8 µM) was 0.993. For the same compound, the relative viability ([9]; first compound 2.53 µM) was 0.897, the relative viability ([9]; first compound 8 µM) was 0.972 and the relative viability ([10]; first compound 0.08 µM) was 0.903. For the same compound, the relative viability ([10]; first compound 0.253 µM) was 0.958, the relative viability ([10]; first compound 0.8 µM) was 0.916 and the relative viability ([10]; first compound 2.53 µM) was 0.993. For the same compound, the relative viability ([10]; first compound 8 µM) was 0.844, the relative viability ([11]; first compound 0.08 µM) was 0.951 and the relative viability ([11]; first compound 0.253 µM) was 0.939. For the same compound, the relative viability ([11]; first compound 0.8 µM) was 0.894, the relative viability ([11]; first compound 2.53 µM) was 0.875 and the relative viability ([11]; first compound 8 µM) was 0.976. It also gave a relative viability ([12]; first compound 0.08 µM) of 0.947, a relative viability ([12]; first compound 0.253 µM) of 0.908 and a relative viability ([12]; first compound 0.8 µM) of 0.537. It also gave a relative viability ([12]; first compound 2.53 µM) of 0.936, a relative viability ([12]; first compound 8 µM) of 0.918 and a relative viability ([13]; first compound 0.08 µM) of 0.338. It also gave a relative viability ([13]; first compound 0.253 µM) of 0.39, a relative viability ([13]; first compound 0.8 µM) of 0.398 and a relative viability ([13]; first compound 2.53 µM) of 0.337. The relative viability ([13]; first compound 8 µM) was 0.355, the relative viability ([14]; first compound 0.08 µM) was 0.973 and the relative viability ([14]; first compound 0.253 µM) was 0.996. The relative viability ([14]; first compound 0.8 µM) was 0.74, the relative viability ([14]; first compound 2.53 µM) was 0.884 and the relative viability ([14]; first compound 8 µM) was 0.581. It also gave a relative viability ([15]; first compound 0.08 µM) of 0.883, a relative viability ([15]; first compound 0.253 µM) of 1.04 and a relative viability ([15]; first compound 0.8 µM) of 1.02. It also gave a relative viability ([15]; first compound 2.53 µM) of 0.757, a relative viability ([15]; first compound 8 µM) of 0.908 and a relative viability ([16]; first compound 0.08 µM) of 0.761. For the same compound, the relative viability ([16]; first compound 0.253 µM) was 0.979, the relative viability ([16]; first compound 0.8 µM) was 0.979 and the relative viability ([16]; first compound 2.53 µM) was 0.896. For the same compound, the relative viability ([16]; first compound 8 µM) was 0.984, the relative viability ([17]; first compound 0.08 µM) was 1.08 and the relative viability ([17]; first compound 0.253 µM) was 0.855. For the same compound, the relative viability ([17]; first compound 0.8 µM) was 0.851, the relative viability ([17]; first compound 2.53 µM) was 0.944 and the relative viability ([17]; first compound 8 µM) was 0.529. For the same compound, the relative viability ([18]; first compound 0.08 µM) was 0.672, the relative viability ([18]; first compound 0.253 µM) was 0.699 and the relative viability ([18]; first compound 0.8 µM) was 0.719. The relative viability ([18]; first compound 2.53 µM) was 0.725, the relative viability ([18]; first compound 8 µM) was 0.852 and the relative viability ([19]; first compound 0.08 µM) was 1.1. The relative viability ([19]; first compound 0.253 µM) was 0.92, the relative viability ([19]; first compound 0.8 µM) was 0.949 and the relative viability ([19]; first compound 2.53 µM) was 1.02. For the same compound, the relative viability ([19]; first compound 8 µM) was 0.92, the relative viability ([20]; first compound 0.08 µM) was 1.09 and the relative viability ([20]; first compound 0.253 µM) was 1.21. For the same compound, the relative viability ([20]; first compound 0.8 µM) was 0.741, the relative viability ([20]; first compound 2.53 µM) was 0.899 and the relative viability ([20]; first compound 8 µM) was 1.11. It also gave a relative viability ([21]; first compound 0.08 µM) of 0.716, a relative viability ([21]; first compound 0.253 µM) of 0.802 and a relative viability ([21]; first compound 0.8 µM) of 0.686. It also gave a relative viability ([21]; first compound 2.53 µM) of 0.772 and a relative viability ([21]; first compound 8 µM) of 0.52.

Source: the supplement of paper PMC10307832
